Experimental data as given in patent publication US10077261B2, “Imidazolin-5-one derivative useful as FASN inhibitors for the treatment of cancer” (Janssen Pharmaceutica NV, priority 2012, dated 2018).

Columns and labels:
[1] = target: T1, hFASN enzyme (full length) (Homo sapiens, UniProt P49327); assay: Fatty Acid Synthase (FASN) inhibition scintillation proximity assay; type: biochemical; conditions: for inhibition at 10 µM: read-out: Human FASN % inhibition @ 10 μM, 10 μM test compound; for IC50: read-out: Human FASN pIC50 (converted)
T1 construct: 10 μL hFASN enzyme (full length, 300 ng, purified in house); made in house
T1 sequence (P49327 whole entry): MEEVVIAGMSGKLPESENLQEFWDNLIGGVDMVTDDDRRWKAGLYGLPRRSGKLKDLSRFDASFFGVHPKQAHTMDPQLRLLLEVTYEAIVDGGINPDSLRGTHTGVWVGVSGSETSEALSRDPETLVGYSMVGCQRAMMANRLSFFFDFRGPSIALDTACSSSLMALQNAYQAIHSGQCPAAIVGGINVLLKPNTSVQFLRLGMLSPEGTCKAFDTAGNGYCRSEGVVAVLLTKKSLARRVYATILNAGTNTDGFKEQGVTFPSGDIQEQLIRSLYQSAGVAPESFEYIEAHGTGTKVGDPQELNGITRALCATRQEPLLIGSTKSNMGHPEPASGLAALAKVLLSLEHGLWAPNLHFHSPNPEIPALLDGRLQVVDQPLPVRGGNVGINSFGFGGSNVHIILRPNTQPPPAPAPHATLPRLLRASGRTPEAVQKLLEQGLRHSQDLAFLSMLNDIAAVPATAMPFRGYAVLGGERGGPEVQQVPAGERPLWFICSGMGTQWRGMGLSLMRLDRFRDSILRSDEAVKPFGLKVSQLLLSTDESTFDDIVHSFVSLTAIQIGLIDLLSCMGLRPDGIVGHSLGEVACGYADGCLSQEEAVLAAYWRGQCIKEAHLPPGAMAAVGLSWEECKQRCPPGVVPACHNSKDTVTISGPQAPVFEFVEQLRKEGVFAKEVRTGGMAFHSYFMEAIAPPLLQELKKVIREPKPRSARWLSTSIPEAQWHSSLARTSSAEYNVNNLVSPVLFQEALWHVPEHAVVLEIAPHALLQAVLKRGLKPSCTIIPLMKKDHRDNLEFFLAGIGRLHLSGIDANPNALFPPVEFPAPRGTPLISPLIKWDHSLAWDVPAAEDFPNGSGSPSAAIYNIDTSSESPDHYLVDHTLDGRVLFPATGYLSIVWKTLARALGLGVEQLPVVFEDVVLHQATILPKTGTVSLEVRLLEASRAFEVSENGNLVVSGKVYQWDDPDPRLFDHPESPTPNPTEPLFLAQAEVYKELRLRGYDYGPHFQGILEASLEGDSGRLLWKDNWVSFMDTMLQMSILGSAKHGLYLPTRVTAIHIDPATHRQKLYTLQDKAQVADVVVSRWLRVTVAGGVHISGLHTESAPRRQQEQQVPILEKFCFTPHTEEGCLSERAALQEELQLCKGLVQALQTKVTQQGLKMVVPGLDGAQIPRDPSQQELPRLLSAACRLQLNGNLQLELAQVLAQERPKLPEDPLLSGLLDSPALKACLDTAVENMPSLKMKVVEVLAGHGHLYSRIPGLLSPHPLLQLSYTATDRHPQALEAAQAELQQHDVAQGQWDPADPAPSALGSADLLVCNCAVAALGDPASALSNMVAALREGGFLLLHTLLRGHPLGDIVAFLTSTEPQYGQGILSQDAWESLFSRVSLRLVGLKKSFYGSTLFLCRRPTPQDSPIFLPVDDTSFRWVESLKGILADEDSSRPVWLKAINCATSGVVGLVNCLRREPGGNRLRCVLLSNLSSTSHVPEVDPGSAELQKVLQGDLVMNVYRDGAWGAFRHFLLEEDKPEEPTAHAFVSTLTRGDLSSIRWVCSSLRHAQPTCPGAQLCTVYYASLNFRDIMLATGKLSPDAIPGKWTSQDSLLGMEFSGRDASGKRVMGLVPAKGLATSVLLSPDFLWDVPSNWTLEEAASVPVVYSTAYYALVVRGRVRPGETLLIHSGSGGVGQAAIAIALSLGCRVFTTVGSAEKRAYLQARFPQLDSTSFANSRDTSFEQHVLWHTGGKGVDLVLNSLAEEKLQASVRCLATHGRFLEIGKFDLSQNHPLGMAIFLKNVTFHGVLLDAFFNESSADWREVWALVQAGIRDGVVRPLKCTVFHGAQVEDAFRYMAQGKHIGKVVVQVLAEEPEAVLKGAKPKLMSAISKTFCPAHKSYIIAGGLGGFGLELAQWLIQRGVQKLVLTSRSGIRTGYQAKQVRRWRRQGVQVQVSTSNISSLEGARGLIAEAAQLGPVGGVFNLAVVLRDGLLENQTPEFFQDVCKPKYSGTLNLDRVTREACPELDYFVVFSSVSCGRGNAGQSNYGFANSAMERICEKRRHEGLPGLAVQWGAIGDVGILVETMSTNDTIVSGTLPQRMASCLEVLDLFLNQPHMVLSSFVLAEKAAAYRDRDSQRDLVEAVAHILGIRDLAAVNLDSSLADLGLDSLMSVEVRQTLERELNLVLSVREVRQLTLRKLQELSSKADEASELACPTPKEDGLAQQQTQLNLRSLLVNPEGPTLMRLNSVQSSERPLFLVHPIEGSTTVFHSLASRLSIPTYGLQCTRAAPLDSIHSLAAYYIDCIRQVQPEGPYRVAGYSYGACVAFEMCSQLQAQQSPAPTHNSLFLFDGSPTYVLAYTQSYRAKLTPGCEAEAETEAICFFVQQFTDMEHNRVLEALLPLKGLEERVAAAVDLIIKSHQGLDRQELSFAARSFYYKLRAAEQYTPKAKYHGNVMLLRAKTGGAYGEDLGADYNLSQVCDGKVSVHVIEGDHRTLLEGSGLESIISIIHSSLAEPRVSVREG
Procedure, shortened: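 Read-out relies on hydrophobic ³H-palmitate product, formed from ³H-acetyl-CoA and malonyl-CoA, binding streptavidin imaging beads, measured at 610±20 nm after at least 24 h. Full-length enzyme (300 ng) in phosphate buffer pH 7.5 with DTT; eight compound concentrations, 0.01–30 μM.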

A2780 ovarian cells [2] = assay: A2780 ovarian cell proliferation assay in lipid reduced medium, with palmitate (MTT); type: cell-based; conditions: Homo sapiens, A2780, 96 h; read-out: pIC50 A2780 Ovarian Cell, With Palmitate (converted)
Procedure, shortened: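 In this palmitate-supplemented format, compound dilutions (30 μM down to 0.01 μM) are added to cells in lipid-reduced serum with 25 μM palmitate, 0.2% fatty-acid-free BSA and 0.25% ethanol. After four days (96 h) MTT absorbance at 544 nm is recorded and fitted by minimum sum of squares.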

A2780 ovarian cells [3] = assay: A2780 ovarian cell proliferation assay in lipid reduced medium, without palmitate (MTT); type: cell-based; conditions: Homo sapiens, A2780, 96 h; read-out: pIC50 A2780 Ovarian Cell, Without Palmitate (converted)
[4] = tested on: LNCaP-Vancouver prostate cells; assay: In vitro LNCaP Vancouver prostate cell proliferation assay in lipid reduced medium; type: cell-based; conditions: read-out: pIC50 LNCaP_Vancouver prostate cell (converted)
[5] = tested on: PC-3M-Luc-C6 prostate cells; assay: In vitro PC-3M-Luc-C6 prostate cell proliferation assay in lipid reduced medium; type: cell-based; conditions: 96 h, read-out: pIC50 PC-3M-Luc-C6 prostate cell (converted)
[6] = target: Fatty Acid Synthase Keto-reductase Domain (FASN KR) (Homo sapiens, UniProt P49327); assay: Fatty Acid Synthase keto-reductase domain (FASN KR) inhibition, NADPH oxidation at 340 nm
Fatty Acid Synthase Keto-reductase Domain (FASN KR), sequence (P49327 whole entry, the tested form may be a part): as the sequence (P49327 whole entry) above
Protocol: After 20 minutes incubation at room temperature the plate was measured again (T2).
The decrease in absorbance was calculated as (Absorbance before incubation T1)−(Absorbance following incubation T2).
A plot of Controlmin versus test compound concentration was fitted to a 4-parameter logistic curve using a non-linear least squares regression method.

Row | inhibition at 10 µM [1] [%] | IC50 [1] [nM] | IC50 (A2780 ovarian cells [2]) [nM] | IC50 (A2780 ovarian cells [3]) [nM] | IC50 [4] [nM] | IC50 [5] [nM] | IC50 [6] [nM] | Structure (SMILES)
1 | 100 | 66.1 | > 10000 | 132 | 1150 | 309 | 95.5 | COc1cccc2ccc(-c3ccc(C4=NC5(CC5)C(=O)N4CC4CN(C(=O)C5CC5)C4)c(F)c3)cc12 [compound 380, 6-((1-(cyclopropanecarbonyl)azetidin-3-yl)methyl)-5-(2-fluoro-4-(8-methoxynaphthalen-2-yl)phenyl)-4,6-diazaspiro[2.4]hept-4-en-7-one]
2 | 98 | 22.9 | > 10000 | ~2.51 | 10.5 | 1.91 | 35.5 | O=C(N1CC[C@@H](CN2C(=O)C3(CC3)N=C2c2ccc(-c3ccc4cc(F)ccc4c3)cc2F)C1)C1(O)CC1 [compound 381, (R)-5-(2-fluoro-4-(6-fluoronaphthalen-2-yl)phenyl)-6-((1-(1-hydroxycyclopropanecarbonyl)pyrrolidin-3-yl)methyl)-4,6-diazaspiro[2.4]hept-4-en-7-one]
3 | 99 | 25.1 | > 10000 | ~6.76 | 55 | 26.9 | 66.1 | Cn1cc(-c2ccc(-c3ccc(C4=NC5(CC5)C(=O)N4CC4CN(C(=O)C5(O)CC5)C4)c(F)c3)cc2)cn1 [compound 382, 5-(3-fluoro-4′-(1-methyl-1H-pyrazol-4-yl)-[1,1′-biphenyl]-4-yl)-6-((1-(1-hydroxycyclopropanecarbonyl)azetidin-3-yl)methyl)-4,6-diazaspiro[2.4]hept-4-en-7-one]
4 | 102 | 24 | ~4680 | 10.5 | 50.1 | ~18.2 | 61.7 | O=C(N1CC(CN2C(=O)C3(CC3)N=C2c2ccc(-c3ccc4cc(Cl)ccc4c3)cc2F)C1)C1(O)CC1 [compound 383, 5-(4-(6-chloronaphthalen-2-yl)-2-fluorophenyl)-6-((1-(1-hydroxycyclopropanecarbonyl)azetidin-3-yl)methyl)-4,6-diazaspiro[2.4]hept-4-en-7-one]
5 | 100 | 63.1 | 5250 | 72.4 | 832 | 166 | ~851 | O=C(N1CC(CN2C(=O)C3(CC3)N=C2c2ccc(-c3ccc4ccc(F)cc4c3)cc2F)C1)C1(O)CC1 [compound 384, 5-(2-fluoro-4-(7-fluoronaphthalen-2-yl)phenyl)-6-((1-(1-hydroxycyclopropanecarbonyl)azetidin-3-yl)methyl)-4,6-diazaspiro[2.4]hept-4-en-7-one]
6 | 103 | 22.9 | ~2570 | ~3.63 | 18.6 | ~4.79 | 43.7 | CC1(C(=O)N2CC(CN3C(=O)C4(CC4)N=C3c3ccc(-c4ccc5cc(C#N)ccc5c4)cc3F)C2)CC1 [compound 385, 6-(3-fluoro-4-(6-((1-(1-methylcyclopropanecarbonyl)azetidin-3-yl)methyl)-7-oxo-4,6-diazaspiro[2.4]hept-4-en-5-yl)phenyl)-2-naphthonitrile]
7 | 99 | 324 | > 10000 | ~2630 | 2750 | 1480 | 676 | O=C(C1CC1)N1CC[C@@H](CN2C(=O)C3(CC3)N=C2c2ccc(-c3ccc4occc4c3)cn2)C1 [compound 390, 5-[5-(1-Benzofuran-5-yl)pyridin-2-yl]-6-{[(3R)-1-(cyclopropylcarbonyl)pyrrolidin-3-yl]methyl}-4,6-diazaspiro[2.4]hept-4-en-7-one]
8 | 104 | 129 | > 10000 | 1170 | 1700 | 724 | 389 | Cc1cc2cc(-c3ccc(C4=NC5(CC5)C(=O)N4CC4CN(C(=O)C5CC5)C4)c(C)c3)ccc2s1 [compound 391, 6-{[1-(Cyclopropylcarbonyl)azetidin-3-yl]methyl}-5-[2-methyl-4-(2-methyl-1-benzothiophen-5-yl)phenyl]-4,6-diazaspiro[2.4]hept-4-en-7-one]
9 | 91 | 245 | > 10000 | 2510 | ~1700 | 1620 | 871 | Cc1cc(C2=NC3(CC3)C(=O)N2CC2CN(C(=O)C3CC3)C2)ccc1-c1ccc2sccc2c1 [compound 392, 5-[4-(1-Benzothiophen-5-yl)-3-methylphenyl]-6-{[1-(cyclopropylcarbonyl)azetidin-3-yl]methyl}-4,6-diazaspiro[2.4]hept-4-en-7-one]
10 | 102 | 263 | > 10000 | ~2290 | 2340 | 1740 | 955 | Cc1cc(-c2ccc3oc(C)c(C)c3c2)ccc1C1=NC2(CC2)C(=O)N1CC1CN(C(=O)C2CC2)C1 [compound 398, 6-{[1-(Cyclopropylcarbonyl)azetidin-3-yl]methyl}-5-[4-(2,3-dimethyl-1-benzofuran-5-yl)-2-methylphenyl]-4,6-diazaspiro[2.4]hept-4-en-7-one]
11 | 99 | 363 | > 6170 | > 6170 | > 3020 | > 3020 | 1320 | Cc1oc2ccc(-c3ccc(C4=NC5(CC5)C(=O)N4C[C@@H]4CCN(C(=O)C5CC5)C4)cc3F)cc2c1C [compound 399, 6-{[(3R)-1-(Cyclopropylcarbonyl)pyrrolidin-3-yl]methyl}-5-[4-(2,3-dimethyl-1-benzofuran-5-yl)-3-fluorophenyl]-4,6-diazaspiro[2.4]hept-4-en-7-one]
12 | 101 | 195 | > 6170 | 229 | 1200 | 214 | 479 | Nc1cccc(-c2ccc(C3=NC4(CC4)C(=O)N3C[C@@H]3CCN(C(=O)C4CC4)C3)cc2)n1 [compound 400, 5-[4-(6-Aminopyridin-2-yl)phenyl]-6-{[(3R)-1-(cyclopropylcarbonyl)pyrrolidin-3-yl]methyl}-4,6-diazaspiro[2.4]hept-4-en-7-one]
13 | 102 | 138 | > 10000 | 174 | 1740 | 174 | 302 | O=C(C1CC1)N1CC[C@@H](CN2C(=O)C3(CC3)N=C2c2ccc(-c3ccc4[nH]ccc4c3)nc2)C1 [compound 402, 6-{[(3R)-1-(Cyclopropylcarbonyl)pyrrolidin-3-yl]methyl}-5-[6-(1H-indol-5-yl)pyridin-3-yl]-4,6-diazaspiro[2.4]hept-4-en-7-one]
14 | 100 | 158 | > 10000 | 126 | 525 | 162 | 427 | Cn1cc(-c2ccc(-c3ccc(C4=NC5(CC5)C(=O)N4C[C@H]4CCN(C(=O)C5CC5)C4)cc3)cc2)cn1 [compound 411, 6-{[(3S)-1-(Cyclopropylcarbonyl)pyrrolidin-3-yl]methyl}-5-[4′-(1-methyl-1H-pyrazol-4-yl)biphenyl-4-yl]-4,6-diazaspiro[2.4]hept-4-en-7-one]
15 | 96 | 324 | > 10000 | 1620 | 457 | 575 | 427 | O=C(C1CC1)N1CC[C@H](CN2C(=O)C3(CC3)N=C2c2ccc(-c3ccc(-c4cccc(Cl)c4)cc3)cc2)C1 [compound 412, 5-(3″-Chloro-1,1′:4′,1″-terphenyl-4-yl)-6-{[(3S)-1-(cyclopropylcarbonyl)pyrrolidin-3-yl]methyl}-4,6-diazaspiro[2.4]hept-4-en-7-one]
16 | 91 | 302 | 7240 | ~676 | 447 | 479 | 891 | Cc1ccc(-c2ccc(-c3ccc(C4=NC5(CC5)C(=O)N4C[C@H]4CCN(C(=O)C5CC5)C4)cc3)cc2)cc1 [compound 413, 6-{[(3S)-1-(Cyclopropylcarbonyl)pyrrolidin-3-yl]methyl}-5-(4″-methyl-1,1′:4′,1″-terphenyl-4-yl)-4,6-diazaspiro[2.4]hept-4-en-7-one]
17 | 101 | 135 | > 10000 | ~200 | 1150 | 178 | 295 | O=C(C1CC1)N1CC[C@@H](CN2C(=O)C3(CC3)N=C2c2ccc(-c3ccc4[nH]ncc4c3)c(F)c2)C1 [compound 414, 6-{[(3R)-1-(Cyclopropylcarbonyl)pyrrolidin-3-yl]methyl}-5-[3-fluoro-4-(1H-indazol-5-yl)phenyl]-4,6-diazaspiro[2.4]hept-4-en-7-one]
